US11713293B2, “Substituted biaryl sulfonamides and the use thereof” (NovoMedix, LLC, priority 2012, dated 2023)
Read-outs that look alike come from different tables or passages of the source.

Experiments:
[1] = tested on: purified luciferase protein; assay: Inhibition of purified luciferase protein (specificity control); format: biochemical; details: at 100 μM
[2] = tested on: triple negative breast cancer cell line 4T1; assay: Cell-based IC50 assay, adherent cells, 4T1; details: 72 hours, CellTiter 96 Aqueous One
Experimental: (§1) In one embodiment, the IC50s of the compounds provided herein were determined in cell-based assays using adherent cells. In one embodiment, the activity of the compounds provided herein were determined in a cell-based assay using the triple negative breast cancer cell line MDA-MB-468. In one embodiment, the activity of the compounds provided herein were determined in a cell-based assay using the triple negative breast cancer cell line MDA-MB-231. In one embodiment, the activity of the compounds provided herein were determined in a cell-based assay using the triple negative breast cancer cell line 4T1.
In one embodiment, the cell-based assay may be carried out as provided herein. On day 0, cells were seeded at 20,000 cells per well in 100 μL of media into individual wells of a 96-well tissue culture plate. The next day, compounds were diluted to twice the desired final concentration and added in 100 μL of media for a final volume of 200 μL. Standard solutions for each compound were prepared at 1000× concentration in DMSO. The highest concentration was 30 mM. […] Cells were placed back in the incubator, and the absorbance at 490 nm was read after 2-3 hours. […] “Percent Viability” was determined by subtracting the average background value (media only) and expressed as a ratio to the average value obtained from cells treated with only DMSO.

[3] = tested on: cyclin D3; assay: Cyclin D3 levels by Western blot in MDA-MB-231 cells; format: cell-based; details: 10 μM, at 18 and 24 h
Experimental: Cyclin D is one of the most commonly overexpressed genes in breast cancer and high levels correlate with poor prognosis. Furthermore, cyclin D overexpression is correlated with triple-negative basal-like tumors. In one embodiment, the effects of a compound provided herein on cyclin D overexpression were evaluated. […] The density ratio of the cyclin D3 band to respective beta-actin band was determined by Western blot analysis and normalized to DMSO (100%).

[4] = PK study and oral bioavailability, mouse; format: in vivo; details: plasma 0 to 6 h
[5] = tested on: highly structured 5′-UTR HB3 (triple stem loop) reporter; assay: Translation of mRNAs with highly structured 5′-UTR versus unstructured
Experimental: Many proteins that drive cancer growth and survival (including the cyclins, c-myc, and Pim-1) have secondary structures in the 5′-UTR of their mRNA that limit the rate of translational initiation. In one embodiment, the effects of a compound provided herein on translation of such mRNAs relative to mRNAs without highly structured 5′-UTRs were evaluated.

[6] = tested on: triple negative breast cancer cell line MDA-MB-231; assay: Cell-based IC50 assay, adherent cells, MDA-MB-231; details: Homo sapiens, 72 hours, CellTiter 96 Aqueous One
Experimental: as §1
(§2) In one embodiment, the cell-based assay may be carried out as provided herein. On day 0, cells were seeded at 20,000 cells per well in 100 μL of media into individual wells of a 96-well tissue culture plate. The next day, compounds were diluted to twice the desired final concentration and added in 100 μL of media for a final volume of 200 μL. Standard solutions for each compound were prepared at 1000× concentration in DMSO. The highest concentration was […]. Serial 1:1 dilutions were made from there for a 6- or 9-point curve (e.g., 20 mM, 10 mM, 5 mM, etc). Compounds were then diluted 1:500 in media, and 100 μL of the resulting solution was added to each well for a final dilution of 1:1000. Each concentration of compound was tested in triplicate. Cells were incubated at 37° C. with 5% CO2. After 72 hours, 20 μL of CellTiter 96 Aqueous One Solution Cell Proliferation Assay (Promega) was added to each well. Cells were placed back in the incubator, and the absorbance at 490 nm was read after 2-3 hours. The concentration of compound that decreased the number of metabolically active cells by 50% was determined and reported as the IC50. “Percent Viability” was determined by subtracting the average background value (media only) and expressed as a ratio to the average value obtained from cells treated with only DMSO.

[7] = tested on: m7GpppN-capped luciferase mRNA reporter; assay: In vitro HeLa cell extract translation system, translation inhibition; format: biochemical; details: at 10 μM
Experimental: In one embodiment, the compounds provided herein were assayed for translation inhibition activity using an in vitro HeLa cell extract translation system with an m7GpppN-capped luciferase mRNA reporter.

[8] = tested on: triple negative breast cancer cell line MDA-MB-468; assay: Cell-based IC50 assay, adherent cells, MDA-MB-468; details: Homo sapiens, 72 hours, CellTiter 96 Aqueous One, metabolically active cells decreased by 50%
Experimental: as §1, §2
The IC50s of the compounds provided herein and some reference compounds were determined in cell-based assay using triple negative breast cancer cell line MDA-MB-468.

[9] = tested on: MDA-MB-231 breast tumors; assay: Tumor growth inhibition in MDA-MB-231 xenograft model for breast cancer; format: in vivo, Mouse/nude
Experimental: In one embodiment, the effects of a compound provided herein on tumor growth in a mouse animal model were evaluated. In specific embodiments, the mouse animal model was the MDA-MB-231 xenograft model for breast cancer. Studies were performed to evaluate the effect of a compound provided herein on the growth of MDA-MB-231 breast tumors in mice. The test system that was used is summarized below:
Animals were housed 10 mice per cage in micro-isolators, with sterile corn cob bedding, food, and water. Mice were acclimated for 3 days and given food and tap water ad libitum. Animals were examined prior to initiation of the study to assure adequate health and suitability. […] During the course of the study, 12-hour light/12-hour dark cycle were maintained. A nominal temperature range of 20-23° C. with a relative humidity between 30% and 70% was maintained. LabDiet 5053-certified PicoLab Rodent Diet and sterile water were provided ad libitum during the study.
Exemplary Protocol: Ten mice per group were inoculated s.c. on the left flank with 5×10^6 MDA-MB-231 cells. When tumors reached a mean volume of approximately 100 mm^3, animals began treatment with a compound provided herein (See Table 5). […] Tumors were evaluated every Monday, Wednesday and Friday, body weights and condition were evaluated on a daily basis. […]
Tumor Measurement: Tumors were monitored daily. If, during a daily evaluation, an animal's tumor appeared to have exceeded 1500 mm^3, the tumor was measured; and animals with tumors greater than 1500 mm^3 and/or that had become necrotic and/or hindered movement were euthanized. Tumors were measured twice weekly by measuring each tumor in 2 dimensions, along the largest dimension (length, L) and perpendicular to this dimension (width, W). Tumor weights were calculated using the standard formula: (L×W^2)/2. The mean tumor weight and standard error of the mean were calculated for each group at each time point. […]
Animal Weight: All animals were weighed twice weekly throughout the study. Group weight change was expressed as a daily group mean weight. […]

[10] = Plasma and tumor concentrations at sacrifice in MDA-MB-231 xenograft mice; format: in vivo, Mouse/nude
Experimental: At study termination, mice still undergoing treatment were given a final dose of compound and sacrificed 2 h later. Average concentrations of compounds in plasma and tumor were determined.

Compound: CC(C)c1cc(C(C)C)c(S(=O)(=O)Nc2cc(C(F)(F)F)cc(C(F)(F)F)c2)c(C(C)C)c1 [Compound 1, N-[3,5-Bis(trifluoromethyl)phenyl]-2,4,6-triisopropyl-benzenesulfonamide]
- inhibition of purified luciferase protein [1]: no inhibition
- IC50 [2]: 15 µM
- cyclin D3 levels (density ratio to beta-actin, normalized to DMSO) [3]: decrease in cyclin D3 levels
- C0 ([4]; IV 5 mg/kg, read-out: IV Administration (5 mg/kg) C0): 54600 ng/mL
- half-life ([4]; IV 5 mg/kg, read-out: IV Administration (5 mg/kg) T½ (converted)): 2.1 h
- C0 ([4]; PO 25 mg/kg, read-out: PO Administration (25 mg/kg) C0): 5150 ng/mL
- half-life ([4]; PO 25 mg/kg, read-out: PO Administration (25 mg/kg) T½ (converted)): 1.5 h
- inhibition of highly structured 5′-UTR reporter relative to mRNAs without highly structured 5′-UTRs [5]: preferential inhibition
- IC50 [6]: 13 µM
- inhibition of luciferase activity vs. DMSO [7]: 97.4%
- IC50 [8]: 5 µM
- mean tumor volume at Day 31 ([9]; qd IP 50 mg/kg, reduced to 25 mg/kg on day 7, vehicle group 898±260 mm^3): 276±119 mm^3
- mean weight gain ([9]; qd IP 50/25 mg/kg, Days 1 to 31, vehicle group 4.2%): 0.1%
- tumor growth after drug withdrawal ([9]; within 10 days of withdrawal, from day 32): tumor growth did not resume
- levels in plasma and tumor samples after discontinued treatment ([10]; mice that discontinued treatment on Day 31, at study termination): detectable levels
- concentration at 14 days ([10]; nude, mouse, plasma, intraperitoneal, treated until the end: No, none after day 31, sacrificed day 45, read-out: Ave. Plasma Conc.): 50 ± 20 nM
- concentration at 2 h ([10]; nude, mouse, plasma, intraperitoneal, treated until the end: Yes, 50/25 mg/kg, sacrificed day 45, 2 h after final dose, read-out: Ave. Plasma Conc.): 2330 ± 270 nM
- Ave. Tumor Conc. ([10]; treated until the end: No, none after day 31, sacrificed day 45): 0.07 ± 0.04 μM/g of tumor tissue
- Ave. Tumor Conc. ([10]; treated until the end: Yes, 50/25 mg/kg, sacrificed day 45, 2 h after final dose): 1.25 ± 0.09 μM/g of tumor tissue
